What was measured:
IAV HA and M2 proteins = format: cell-based, Influenza A virus
MARC = assay: Cytotoxicity, MTT assay, MARC; format: cell-based, African green monkey
Procedure: (§1) The cytotoxic effects of the chemicals and their solvents were tested by the MTT assay,[44] and its procedure is described in Supplementary Information.
(§2) The cytotoxic effects of the chemicals and their solvents used were tested by the MTT assay as described previously.^10 In brief, the chemicals were dissolved in DMSO to a stock concentration of 10 mM, and then freshly serially diluted in serum-free medium before being added to cell culture monolayers. The absorbance was measured using an enzyme-linked immunosorbent assay (ELISA) reader at an optical density (OD) of 570 nm. The percent cell viability was calculated using the following formula, [(ODsample˗ODblank)/(ODcontrol˗ODblank)] × 100%. According to the cell cytotoxicity data, dose-response curves were generated for the calculation of CC50 using GraphPad Prism software version 8.4.2.

[1] = tested on: LD lipolysis (FFA and glycerol release); assay: Intracellular FFA and glycerol quantification in IAV-infected A549 cells; format: cell-based, human; details: 20 µM at 12 hpi, vs vehicle-treated control
Procedure: Cells were grown in 6- or 12-well plates or 8-well chamber slides to the desired confluency and then washed twice with phosphate-buffered saline (PBS, pH 7.4). They were then mock-inoculated with medium only or virus-inoculated with various multiplicities of infection (MOI): MOI of 0.01 or 1 FFU/cell for IAV, and MOI of 0.01 or 0.1 FFU/cell for SARS-CoV-2, BCoV, PEDV, PRRSV, and PSaV. Thereafter, each inoculum was absorbed for 1 h, and the cells were washed twice with PBS (pH 7.4). As shown in Supplementary Table 4, further treatments and incubations varied dependent on the virus species used. […]
To determine intracellular levels of free fatty acids, the different cultured cells infected with or without the seven target RNA viruses, or treated with or without different concentrations of chemicals, and the lung samples from experimental mice and hamsters were prepared as described above. The amount of intracellular free fatty acid was determined using a quantification kit from BioVision according to the manufacturer’s recommendations.^31 Briefly, 5x10^6 cells or 100 mg of lung tissue were mixed with 500 μL of chloroform-Triton X-100 (1% Triton X-100 in pure chloroform) with vortexing at five-minute intervals for 20 min at 20°C. […]

SARS-CoV-2 S protein = format: cell-based
MDCK = assay: Cytotoxicity, MTT assay, MDCK; format: cell-based, canine
Procedure: as §1, §2

[2] = tested on: Porcine respiratory reproductive syndrome virus (LMY); details: for IC50: PRRSV (LMY), MARC-145 cells
seven target RNA viruses = assay: Broad-spectrum antiviral effect at 1-20 µM at different treatment times (RT-qPCR, CCIF); format: cell-based; details: all target RNA viruses, treated just prior to the peak of lipase activity vs immediately after virus absorption
[3] = tested on: Bovine coronavirus (KWD20); assay: In vitro antiviral activity against BCoV in HRT-18G cells (CCIF viral yield); format: cell-based; details: for IC50: HRT-18G cells
Procedure: Cells were grown in 6- or 12-well plates or 8-well chamber slides to the desired confluency and then washed twice with phosphate-buffered saline (PBS, pH 7.4). They were then mock-inoculated with medium only or virus-inoculated with various multiplicities of infection (MOI): MOI of 0.01 or 1 FFU/cell for IAV, and MOI of 0.01 or 0.1 FFU/cell for SARS-CoV-2, BCoV, PEDV, PRRSV, and PSaV. Thereafter, each inoculum was absorbed for 1 h, and the cells were washed twice with PBS (pH 7.4). As shown in Supplementary Table 4, further treatments and incubations varied dependent on the virus species used. Cells treated with PKA inhibitor H89 (5 μM or 50 μM concentration) or vehicle-treated immediately after absorption of IAV at an MOI of 1 FFU or SARS-CoV-2 at an MOI of 0.1 FFU were incubated for 24 and 36 h, respectively, and each cell lysate was used for the detection of HSL and pHSL by western blot analysis as described below. Cells treated with lipase inhibitors at the median incubation time of IAV or SARS-CoV-2 as described in the above condition were supplemented with LA, OA, or PA at 100 µM concentration and left incubation for further median incubation time. The cells were used to assess levels of intracellular TAGs, cholesterol, FFAs, glycerol, FAO, proinflammatory cytokines as well as viral genome copy numbers and virus titers as described below and in Supplementary Information.
To determine the antiviral effects of chemicals, serial 10-fold dilutions of each cell culture supernatant after three cycles of freezing and thawing cycles were prepared in appropriate medium supplemented with 100 U/mL penicillin and 100 μg/mL streptomycin as described above. To determine the viral infectivity titer in lung tissues from the hamsters challenged with or without SARS-CoV-2, or administered with or without inhibitors as described above, aseptically sampled lungs from five hamsters per group at day five post-virus infection were harvested. Cleared supernatants from lung tissue as produced from IAV-infected mice above were serially tenfold-diluted with virus growth medium. […] The cells were washed twice with PBS (pH 8.0), mounted with 60% glycerol, and observed byr inverted fluorescence microscopy. The number of cells showing a viral antigen-positive signal at the endpoint dilution were counted. IC50 was calculated using GraphPad Prism software version 8.4.2. […] CC50 data from the MTT assay and IC50 from the IF assay were both calculated using GraphPad Prism software version 8.4.2.

Structure (SMILES)	palmitoylation of IAV HA and M2 proteins (IAV HA and M2 proteins)	CC50 (MARC) [µM]	levels of intracellular FFAs and glycerol [1]	palmitoylation of the SARS-CoV-2 spike (S) protein (SARS-CoV-2 S protein)	CC50 (MDCK) [µM]	SI (CC50/IC50) [2]	IC50 [2] [µM]	viral genome replication and infectious progeny production (seven target RNA viruses)	SI (CC50/IC50) [3]	IC50 [3] [µM]
CN(C)C(=O)Nc1cccc(-c2ccc(N(C)C)cc2)c1 [Atglistatin]	significantly inhibited	212 ± 3.5	significantly reduced	significantly inhibited	269 ± 3.2	84	2.53 ± 0.18	greater reduction in viral genome replication and infectious progeny production of all target RNA viruses in a dose-dependent manner	152	1.2 ± 0.04
COc1nn(-c2ccc(NC(=O)OCc3ccccc3)c(C)c2)c(=O)o1 [CAY10499]	significantly inhibited	101 ± 4	significantly reduced	significantly inhibited	110 ± 4.1	24	4.21 ± 0.55	greater reduction in viral genome replication and infectious progeny production of all target RNA viruses in a dose-dependent manner	14	7.3 ± 0.52

Reference: publication PMC9575645 (Signal Transduction and Targeted Therapy, 2022)
